Reference: patent publication US7863247B1, “Prevention of fetal alcohol syndrome and neuronal cell death with ADNF polypeptides” (Ramot-University Authority for Applied Research and …, priority 2000, dated 2011)
No end group written: not given here.

Legend:
[1] = tested on: C57-B16J mice exposed to alcohol in utero; experiment: Fetal brain weights at E18 in the FAS model; type: in vivo; conditions: pretreatment 30 min prior to alcohol on E8 (SAL 20 μg; NAP 20 μg+SAL 20 μg)
Procedure: (§1) A published well-delineated model for FAS was followed (Webster et al., Neurobehav Tox, 2:227-34 (1980)). Animals were injected (intraperitoneal) on E8 with 25% ethyl alcohol in saline (v/v) or vehicle alone at 0.030 ml/g body weight at 0900 on E8. Pretreatment with VIP and ADNF polypeptides (e.g., NAP, SAL, NAP+SAL) were given 30 min prior to alcohol. Post-treatment with NAP+SAL was given at 1 or 3 h after alcohol. Dosages of the neuropeptides were NAP (20 μg and 40 μg), SAL (20 μg), NAP (20 μg)+SAL (20 μg); VIP (1 μg). NAP+SAL without alcohol was also studied. NAP was diluted in 50 μl DMSO and diluted in filtered Dulbecco's phosphate buffered saline (DPBS). SAL was dissolved and diluted in filtered DPBS. VIP was dissolved in 20 μl glacial acetic acid and diluted in HPLC water and DPBS. […]
(§2) At E18 (embryonic gestation day 18), the number of live and demised fetuses was determined. […] The mean fetal weights were determined for each mother, and this was used for statistical analysis.
(§3) The mean litter pup and fetal brain weight was calculated, with the litter mean used for all statistical analysis. Percent demises were calculated by dividing the number of demises by the total number of fetuses (live plus demises). […]

[2] = tested on: C57-B16J mice exposed to alcohol in utero; experiment: Fetal weights at E18 in the FAS model; type: in vivo
Procedure: A published well-delineated model for FAS was followed (Webster et al., Neurobehav Tox, 2:227-34 (1980)). Animals were injected (intraperitoneal) on E8 with 25% ethyl alcohol in saline (v/v) or vehicle alone at 0.030 ml/g body weight at 0900 on E8. Pretreatment with VIP and ADNF polypeptides (e.g., NAP, SAL, NAP+SAL) were given 30 min prior to alcohol. Post-treatment with NAP+SAL was given at 1 or 3 h after alcohol. Dosages of the neuropeptides were NAP (20 μg and 40 μg), SAL (20 μg), NAP (20 μg)+SAL (20 μg); VIP (1 μg). NAP+SAL without alcohol was also studied. NAP was diluted in 50 μl DMSO and diluted in filtered Dulbecco's phosphate buffered saline (DPBS). SAL was dissolved and diluted in filtered DPBS. VIP was dissolved in 20 μl glacial acetic acid and diluted in HPLC water and DPBS. Since the animals receiving alcohol were incapacitated for approximately 6 hours following injection, food and water were withheld from all groups for the initial 6 hours, to allow accurate assessment of fetal weights.
At E18 (embryonic gestation day 18), the number of live and demised fetuses was determined. Fetal weights and fetal brain weights were obtained for each fetus in the litter. The mean fetal weights were determined for each mother, and this was used for statistical analysis.
The mean litter pup and fetal brain weight was calculated, with the litter mean used for all statistical analysis. Percent demises were calculated by dividing the number of demises by the total number of fetuses (live plus demises). Statistical analysis included ANOVA for continuous variables, Mann-Whitney U for nonparametic data, Chi square for categorical variables or Fisher's exact test where appropriate [Statview 4.5 (Abacus Concepts, Inc., Berkeley, Calif.)] with p<0.05 considered significant. Results are presented as mean±standard error unless specified.

[3] = tested on: C57-B16J mice exposed to alcohol in utero; experiment: Fetal death (% demises at E18) in the FAS model; type: in vivo; conditions: pretreatment 30 min prior to alcohol on E8 (NAP 20 μg; NAP 20 μg+SAL 20 μg; VIP 1 μg); counted at E18
Procedure: as §1, §2, §3

[4] = Bioavailability of 3H-NAP to embryos (size exclusion chromatography); type: in vivo, mice
Procedure: FIG. 7a and FIG. 7b illustrate chromatographs of radiolabel (^3H) present in 1 ml fractions from a size exclusion column (Superdex Peptide HR 10/30, Pharmacia Biotech). ^3H-NAP (2 μCi/20 μg) was administered intraperitoneally to pregnant mice at E8. Intact NAP was present in fractions 15-17 denoted by shaded grey bar on graphs. FIG. 7a illustrates a pooled sample of three embryos (different litters) after a thirty minute exposure to ^3H-NAP. Based on this accumulation of labeled peptide, approximately 1 pmoles of NAP was found in the embryo, with an estimated concentration of 10 nM, well within the therapeutic range of NAP. FIG. 7b illustrates a pooled sample of three embryos (different litters) after a sixty minute exposure to ^3H-NAP.
The bioavailability of NAP to embryos was assessed by intraperitoneal administration of ^3H-NAP (2 μCi/20 μg) to pregnant mice at E8. […] Based on this accumulation of labeled peptide, approximately […] of NAP was found in the embryo, with an estimated concentration of 10 nM, well within the therapeutic range of NAP.

[5] = pretreatment 30 min prior to alcohol on E8 (NAP 20 μg; SAL 20 μg; NAP 20 μg+SAL 20 μg; VIP 1 μg)

Substance	fetal brain weights (alcohol-induced microcephaly) [1]	fetal weights (alcohol-induced growth restriction) [2, 5]	percentage of fetal demises [3]	estimated concentration of NAP in the embryo ([4]; 3H-NAP 2 μCi/20 μg intraperitoneal at E8, 30 min) [nM]	radioactivity recovered in the embryo co-migrating with intact NAP ([4]; 3H-NAP 2 μCi/20 μg intraperitoneal to pregnant mice at E8, 30 min after administration) [%]	fetal weights (alcohol-induced growth restriction) ([2]; pretreatment with a double dosage of NAP (40 μg))
SALLRSIPA	moderately prevented the alcohol-induced fetal brain weight reduction	did not prevent the alcohol-induced fetal weight reduction	–	–	–	–
vasoactive intestinal peptide (HSDAVFTDNYTRLRKQMAVKKYLNSILN; ends and bridges not checked; UniProt P01282 125-152, looked up) [VIP, neuropeptide that is a regulator of early postimplantation mouse embryonic growth, reference compound]	–	improved embryonic weights; however, the effect was intermediate and not statistically significant	did not reverse the fetal death rate	–	–	–
Asn-Ala-Pro-Val-Ser-Ile-Pro-Gln [NAP]	–	moderately prevented the alcohol-induced growth restrictions	prevented the death seen with alcohol	~10	60	moderately prevented the alcohol-induced growth restriction
